{"source": "patent US20090221019A1", "about": "“Core-Modified Terpene Trilactones From Ginkgo Biloba Extract and Biological Evaluation Thereof” (priority 2005, published 2009)", "key": {"[1]": {"test_system": "Aβ1-42 induced inhibition of long-term potentiation in the CA1 region of hippocampal slices", "experiment": "Aβ-induced LTP impairment in CA1 region of hippocampal slices (fEPSP recordings, theta-burst stimulation)", "type": "cell-based, rat; mice", "settings": "for reversal of Aβ-induced LTP impairment: individual terpene trilactones at 1 μM each, co-treated with 200 nM Aβ1-42 oligomers, 20 min; for efficiency of rescue of LTP impairment compared with GJ: 1 μM, 20 min treatment, slices treated with Aβ"}, "[2]": {"test_system": "cultured hippocampal neurons treated with oligomeric Aβ1-42", "experiment": "Neuronal cell death assay (nuclear counting of viable cells)", "settings": "for cells surviving: mean±SEM"}, "glycine receptor": {"test_system": "glycine receptor", "settings": "among several receptor-gated channels; cited from earlier work"}, "[3]": {"test_system": "SY5Y human neuroblastoma cell line", "settings": "Bate et al. (25); cited from earlier work"}, "[4]": {"test_system": "GABAA receptor convulsant binding site", "settings": "cited from earlier work"}, "GABAA receptor": {"test_system": "GABAA receptor", "settings": "compared with all the ginkgolides; cited from earlier work"}, "[5]": {"test_system": "inhibition of LTP by Aβ1-42 oligomers", "settings": "earlier studies (19); cited from earlier work"}, "[6]": {"settings": "1 μM compound added at the same time as 10 μM oligomeric Aβ1-42, 24 hour, Aβ alone 48.5%±2.4"}}, "data": [{"compound": "CC(C)(C)[C@]1(O)CC2OC(=O)CC23C(=O)OC2OC(=O)[C@H](O)C231", "note": "(stereo partly drawn) [BB, bilobalide]", "values": [{"measurement": "reversal of Aβ-induced LTP impairment", "setting": "[1]", "value": "No effect"}]}, {"compound": "C[C@@H]1C(=O)O[C@H]2C[C@@]34[C@H]5C[C@@H](C(C)(C)C)[C@]36[C@@H](OC(=O)[C@@H]6O)O[C@@]4(C(=O)O5)[C@]21O", "note": "[GA, ginkgolide A]", "values": [{"measurement": "efficiency of rescue of LTP impairment compared with GJ", "setting": "[1]", "value": "slightly less than that of GJ"}, {"measurement": "reversal of Aβ-induced LTP impairment", "setting": "[1]", "value": "capable of reproducing the activity of the enriched extract and reversing Aβ-induced LTP impairment"}, {"measurement": "cells surviving", "setting": "[2]; [6]", "value": "50.5%±+5.7"}, {"measurement": "antagonistic properties toward glycine receptor", "setting": "glycine receptor", "value": "showed antagonistic properties exclusively toward glycine receptor"}, {"measurement": "blockade of cell death", "setting": "[3]", "value": "blockade of cell death"}]}, {"compound": "C[C@@H]1COC2CC34C5C[C@@H](C(C)(C)C)C36C(OC[C@@H]6O)O[C@@]4(CO5)[C@]21O", "note": "(stereo partly drawn) [GA-triether]", "values": [{"measurement": "efficiency of rescue of LTP impairment compared with GJ", "setting": "[1]", "value": "slightly less than that of GJ"}, {"measurement": "reversal of Aβ-induced LTP impairment", "setting": "[1]", "value": "capable of reproducing the activity of the enriched extract and reversing Aβ-induced LTP impairment"}]}, {"compound": "CC1C(=O)OC2C(O)C34C5CC(C(C)(C)C)C36C(OC(=O)C6O)OC4(C(=O)O5)C12O", "note": "(stereo not drawn) [GB, ginkgolide B]", "values": [{"measurement": "reversal of Aβ-induced LTP impairment", "setting": "[1]", "value": "No effect"}, {"measurement": "antagonistic properties toward glycine receptor", "setting": "glycine receptor", "value": "showed antagonistic properties exclusively toward glycine receptor"}, {"measurement": "blockade of cell death", "setting": "[3]", "value": "blockade of cell death"}]}, {"compound": "C[C@@H]1C(=O)O[C@@H]2[C@H]1[C@@]13OC4OC(=O)[C@H](O)C45[C@H](C(C)(C)C)[C@@H](O)C(OC1=O)[C@]53[C@H]2O", "note": "(stereo partly drawn) [GM, Ginkgolide M]", "values": [{"measurement": "displacement of TBPS (35S-tert-butylbicyclophosphorothionate)", "setting": "[4]", "value": "efficiently displaced"}, {"measurement": "inhibition of the GABAA receptor", "setting": "GABAA receptor", "value": "highest inhibition"}]}, {"compound": "COc1ccc(C2CNC(=O)C2)cc1OC1CCCC1", "note": "(stereo not drawn) [rolipram]", "values": [{"measurement": "reversal of inhibition of LTP by Aβ1-42 oligomers", "setting": "[5]", "value": "can be reversed by treatment with the phosphodiesterase 4 (PDE4) inhibitor rolipram"}]}, {"compound": "ginkgolide C [GC]", "values": [{"measurement": "reversal of Aβ-induced LTP impairment", "setting": "[1]", "value": "No effect"}, {"measurement": "antagonistic properties toward glycine receptor", "setting": "glycine receptor", "value": "showed antagonistic properties exclusively toward glycine receptor"}]}, {"compound": "ginkgolide J [GJ]", "values": [{"measurement": "potentiation at the end of the recording (residual potentiation, FIG. 12)", "setting": "[1]; 155 min", "value": "most potent ginkgolide, completely mimicking the activity of the enriched extract"}, {"measurement": "reversal of Aβ-induced LTP impairment", "setting": "[1]", "value": "capable of reproducing the activity of the enriched extract and reversing Aβ-induced LTP impairment"}, {"measurement": "cells surviving", "setting": "[2]; [6]", "value": "70.7%±1.4"}, {"measurement": "prevention of Aβ-toxicity", "setting": "[2]; 5 μM, data not shown", "value": "completely prevented the Aβ-toxicity"}, {"measurement": "antagonistic properties toward glycine receptor", "setting": "glycine receptor", "value": "showed antagonistic properties exclusively toward glycine receptor"}]}, {"compound": "oligomeric Aβ1-42: Aβ1-42 purchased from American Peptide, prepared in oligomeric form; neurotoxic agent [reference compound]", "values": [{"measurement": "LTP in the CA1 area relative to control", "setting": "[1]; 200 nM Aβ1-42 oligomers alone, within 20 min of exposure", "value": "depressed LTP in the CA1 area to about a half of control values"}, {"measurement": "effect on baseline transmission", "setting": "[1]; substance alone", "value": "Neither Aβ nor P8A alone affected baseline transmission"}, {"measurement": "cells surviving", "setting": "[2]; 10 μM oligomeric Aβ1-42 alone, 24 hour exposure", "value": "48.5%±2.4"}]}]}
